The values that follow are results of earlier work, collected in US11497761B2, “Compositions for the treatment of metastatic cancer” (priority 2019, dated 2022).

Data set [1] relates to Ehrlich ascites tumor cells. As to conditions: in vitro, Kato et al. 1971; cited from earlier work.
Another data set has as its system PGC-1α. As to conditions: cultured C2C12 myotubes; cited from earlier work.
For data set [2] the following is noted: Kato et al. 1971; cited from earlier work.

In the case of `CCCCCCCCCCCCCCCC(=O)O` [Hexadecanoic, Hexadecanoic acid], in data set [1], the anticancer activity entry was “most active”.

Take `CCCCCCCCCCCC(=O)O` [lauric acid, dodecanoic acid]: the “expression of PGC-1α” value with PGC-1α was “did not alter expression”.

For `CCCCCCCC/C=C\CCCCCCCC(=O)O` [octadecenoic, octadecenoic acid], the solubility result in data set [2] is “poorly soluble”.

In the case of `CCCCCCCCCCCCCCCCCC(=O)O` [octadeconoic, octadeconoic acid], the anticancer activity result in data set [1] was “most active”.

Turning to lauric sucrose ester, the anticancer activity result in data set [1] is “only weak activity”.

For octadecadienoic acid, the anticancer activity result in data set [1] is “most active”.
